Results reported in BigSolDB 2.1.

Nc1ccc(S(=O)(=O)Nc2ncccn2)cc1
solubility (mole fraction)
Conditions | in acetone | in chloroform | in ethanol | in isopropanol | in methanol | in n-propanol
294.15 K | 5.96e-05 | 5.47e-06 | 3.8e-05 | 6.53e-05 | 0.000265 | 9.66e-05
298.15 K | 7.34e-05 | 9.26e-06 | 4.8e-05 | 8.18e-05 | 0.000283 | 0.000124
303.15 K | 9.17e-05 | 1.54e-05 | 6.01e-05 | 0.000103 | 0.000311 | 0.000164
308.15 K | 0.000106 | 2.15e-05 | 7e-05 | 0.000123 | 0.000343 | 0.000208
313.15 K | 0.000115 | 2.57e-05 | 7.56e-05 | 0.000134 | 0.000377 | 0.000245
318.15 K | 0.00012 | 2.71e-05 | 7.68e-05 | 0.000143 | 0.000409 | 0.000279
